The subject of data set [1] is hPD-L1. More on the design: method as in PMID 31455818, PMID 31374878. The settings on record: biochemical results; cited from earlier work.
Data set [2] relates to PD-L1/aAPC CHO-K1 cells. Nature of the data set: Cell Counting Kit-8 (CCK) cell viability assay. Type of data set: cell-based. The settings on record: 24 h.
In data set [3] the test system is PD-1/PD-L1 interaction in co-cultured PD-1 Jurkat T cells and PD-L1/aAPC CHO-K1 cells. Put plainly: Cell-based PD-1/PD-L1 blockade bioassay (NFAT-luciferase reporter, co-culture). The arrangement: species or system human. The settings on record: co-culture 24 h; for EC50: Homo sapiens. From the text: When co-cultured with PD-1 Jurkat T cells and PD-L1/aAPC CHO-K1 cells, TCR activation is restrained by PD-1/PD-L1 ligation and the NFAT-luciferase reporter activity. When PD-1/PD-L1 interaction is disrupted, TCR activation induces luminescence via activation of the NFAT pathway in co-culture systems. Therefore, the effects of KO and its glycosides on PD-1/PD-L1 interaction in the cell model system were examined by measuring NFAT-luciferase reporter activity after co-culture with PD-1/NFAT Reporter-Jurkat cells and PD-L1/aAPC CHO-K1 cells. […] The results described above indicate that KO and its glycosides are involved with the PD-1/PD-L1 blockade, as confirmed by the biochemical assay.
A PD-1/PD-L1 Blockade Bioassay kit was used according to the supplier’s instructions (Promega, Fitchburg, WI, USA) with a slight modification. Briefly, the PD-L1 aAPC/CHO-K1 cells were seeded in 96-well plates at a density of 5 × 10^4/well in the complete culture medium. A few hours later, the medium was removed, and 1 × 10^5 PD-1 Jurkat cells were added to each well with test inhibitors. The cells were cultured for 24 h at 37 °C and then lysed using the Bio-Glo™ Luciferase Assay System (Promega, Madison, WI, USA). After incubation for 15 min, luminescence was quantified using a GloMax® Explorer Multimode Microplate Reader (Promega). Data are presented as fold to untreated control.

Data set [4] deals with PD-1 Jurkat cells. Put plainly: Cell Counting Kit-8 (CCK) cell viability assay. The format is cell-based, human. The settings on record: 24 h.
The conditions of data set [5]: reported; no reference given; cited from earlier work.
The test system of data set [6] is PD-1 level in co-cultured PD-1 Jurkat cells and PD-L1 CHO-K1 cells. Put plainly: Western blot of PD-1 expression in co-cultured cells. The format is cell-based, human. The settings on record: 24 h.
In data set [7] the target is T1, PD-1/PD-L1 protein–protein interaction (Homo sapiens, UniProt Q9NZQ7).
T1 construct: purchased BPS Bioscience #71104 (hPD-L1); #71109 (biotinylated hPD-1); kit #72005
Put plainly: PD-1/PD-L1 competitive ELISA. The format is binding.
Method: To elucidate the effect of test inhibitors on PD-1/PD-L1 protein–protein interaction, PD-1/PD-L1 Competitive ELISA Screening Kits (BPS Bioscience Inc., San Diego, CA, USA) were used according to the supplier’s instructions [27]. Briefly, recombinant hPD-L1 (BPS Bioscience, #71104) was coated overnight at 1 μg/mL in phosphate-buffered saline (PBS) in 96-well plates (Corning Inc., New York, NY, USA). Plates were washed with PBS containing 0.1% Tween (PBS-T), blocked for 1 h at room temperature with PBS containing 2% (w/v) BSA, and then washed again. Fifty microliters of 0.5 μg/mL biotinylated hPD-1 (BPS Bioscience, #71109) was added to the wells, and the plates were incubated for 2 h at room temperature. After three washes in PBS-T, 50 μL of 0.2 μg/mL HRP-conjugated streptavidin was added to each well, and the plates were incubated for 1h. After incubation, plates were washed three times in 0.1% PBS-T, and relative chemiluminescence was measured on a SpectraMax L Luminometer from Molecular Devices (San Jose, CA, USA).

Data set [8] addresses recombinant PD-1 (hPD-1) (Homo sapiens, UniProt Q15116). Nature of the data set: Surface plasmon resonance (Biacore T200). Type of data set: binding. Particulars: SPR.
Data set [9] deals with T2, biotinylated human PD-L1 (Homo sapiens, UniProt Q9NZQ7).
T2 construct: purchased Sino Biological
Nature of the data set: Biolayer interferometry (BLItz) kinetic analysis. The format is binding. The protocol: (§1) To measure the binding affinities and kinetic constants of test inhibitors, BLI analysis was conducted according to a previous report, with slight modifications. Briefly, BLI on a BLItz system is a label-free analytic technology for biomolecular interactions by measuring interference patterns of light reflected from two surfaces. After pre-equilibration of the SA BLI sensor (Pall FortéBio Corp., Menlo Park, CA, USA) in PBS buffer for 10 min, biotinylated human PD-1 (BioVision, Milpitas, CA, USA) and PD-L1 (Sino biological, Beijing, China) were fully loaded onto the sensors by immersion in 4 μL of PD-1 and PD-L1 solution and then dissolved in PBS buffer to 50 μg/mL. Test inhibitors for the kinetic analysis were prepared by 100-fold dilution of stock solution and dissolved in 100% DMSO (0, 0.25, 0.5, and 0.75 mM) in PBS buffer. Binding kinetics were measured as follows: step 1, initial baseline in PBS buffer containing 1% DMSO for 15 s; step 2, association in 4 μL of test inhibitors solution for 20 s; and step 3, dissociation in PBS buffer containing 1% DMSO for 20 s. The kinetic constants were calculated using the BLItz Pro software by fitting the association and dissociation data to a 1:1 model. The equilibrium dissociation constant, KD, was calculated as the dissociation constant (kd)/association constant (ka).

In data set [10] the target is T3, biotinylated human PD-1 (Homo sapiens, UniProt Q15116).
T3 construct: purchased BioVision
Nature of the data set: Biolayer interferometry (BLItz) kinetic analysis. The format is binding. The protocol: as §1

Several values for one entry are separate records, joined by “and”; a condition that tells them apart may be missing. Equal entries are not always repeated. Some results are limits rather than exact numbers.

T3 sequence (Q15116 25-288): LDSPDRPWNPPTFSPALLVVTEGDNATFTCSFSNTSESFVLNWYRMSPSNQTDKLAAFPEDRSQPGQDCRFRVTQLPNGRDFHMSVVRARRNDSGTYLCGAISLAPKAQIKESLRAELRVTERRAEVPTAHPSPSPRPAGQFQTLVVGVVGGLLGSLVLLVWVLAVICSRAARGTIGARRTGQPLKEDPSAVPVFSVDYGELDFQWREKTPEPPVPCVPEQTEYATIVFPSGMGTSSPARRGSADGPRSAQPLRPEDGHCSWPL
T2 sequence (Q9NZQ7 19-290): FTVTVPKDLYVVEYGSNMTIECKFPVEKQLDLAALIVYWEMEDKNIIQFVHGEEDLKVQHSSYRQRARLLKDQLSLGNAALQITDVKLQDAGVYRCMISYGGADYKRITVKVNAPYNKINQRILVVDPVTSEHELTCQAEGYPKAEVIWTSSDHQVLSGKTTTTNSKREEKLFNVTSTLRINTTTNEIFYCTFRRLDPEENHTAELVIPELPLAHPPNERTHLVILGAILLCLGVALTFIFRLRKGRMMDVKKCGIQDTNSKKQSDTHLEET
Sequence of recombinant PD-1 (hPD-1) (Q15116 25-170 limits assumed): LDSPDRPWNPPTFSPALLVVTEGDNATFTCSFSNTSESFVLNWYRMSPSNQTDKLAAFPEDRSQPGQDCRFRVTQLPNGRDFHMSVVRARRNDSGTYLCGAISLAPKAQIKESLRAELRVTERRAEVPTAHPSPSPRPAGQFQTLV
T1 sequence (Q9NZQ7 19-239 limits assumed): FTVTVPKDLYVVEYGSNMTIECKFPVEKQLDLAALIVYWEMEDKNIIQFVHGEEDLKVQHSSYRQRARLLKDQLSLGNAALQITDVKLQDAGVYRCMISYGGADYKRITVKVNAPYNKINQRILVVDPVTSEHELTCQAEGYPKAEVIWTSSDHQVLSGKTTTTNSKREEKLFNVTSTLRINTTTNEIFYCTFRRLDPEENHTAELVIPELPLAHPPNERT

For `C[C@@H](O)[C@H](NC(=O)N[C@@H](CC(N)=O)c1nc([C@@H](N)CO)no1)C(=O)O` [CA-170], the “Direct targeting of hPD-L1” value in [1] was “did not target hPD-L1 directly”.

As to `C[C@@H]1O[C@@H](Oc2cc(O)c3c(=O)c(O[C@@H]4O[C@@H](C)[C@H](O)[C@@H](O)[C@H]4O)c(-c4ccc(O)cc4)oc3c2)[C@H](O)[C@H](O)[C@H]1O` [KI, kaempferol-3,7-dirhamnoside], the “Cytotoxic concentration (not cytotoxic up to)” value in data set [2] and in data set [4] was greater than 100 µM in each case. Moreover, the “Effect on PD-1/PD-L1 interaction in cell model” value in data set [3] (indicated concentration) is “no effect at the indicated concentration”.

Regarding `O=c1c(O)c(-c2ccc(O)cc2)oc2cc(O)cc(O)c12` [KO, kaempferol], the “Cytotoxic concentration (not cytotoxic up to)” value in data set [2] and in data set [4] was greater than 100 µM each time. Besides, the Solubility in water in data set [5] was 440 mg/L and 1.537 mM. The “Effect on PD-1 level” value in [6] is given as “not upregulation of PD-1 level”. For the same compound, the IC50 in data set [7] (PD-L1-coated plate, biotinylated PD-1, read-out: IC50, PD-1/PD-L1 blocking effect) turned out to be 7.8 µM. In data set [3], the EC50 turned out to be 16.5 µM.

With `C[C@@H]1O[C@@H](Oc2cc(O)c3c(=O)c(O)c(-c4ccc(O)cc4)oc3c2)[C@H](O)[C@H](O)[C@H]1O` [KR, kaempferol 7-O-rhamnoside], the “Cytotoxic concentration (not cytotoxic up to)” value in [2] and in [4] was greater than 100 µM in each case. Besides, the Solubility in water in [5] was 1.16 mg/mL and 2.68 mM. The dissociation constant Kd in [8] (Biacore T200, recombinant PD-1) stood at 156 µM; in data set [9] (PD-L1 immobilized on SA sensor, PBS pH 7.3 with 1% DMSO, 1:1 model), 19.7 µM; in data set [10] (PD-1 immobilized on SA sensor, PBS pH 7.3 with 1% DMSO, 1:1 model) it was 31.1 µM. The Rmax in data set [8] (Biacore software) amounted to 24.92. Besides, the “Effect on PD-1 level” value in data set [6] is listed as “not upregulation of PD-1 level”. For the same compound, the kd is 0.00773 s⁻¹ in data set [9] (PD-L1) and 0.00979 s⁻¹ in data set [10] (PD-1). In addition, the kon in data set [9] (PD-L1, read-out: ka) came to 392 M⁻¹ s⁻¹; in [10] (PD-1, read-out: ka), 315 M⁻¹ s⁻¹. In addition, the “Inhibitory effect on PD-1/PD-L1 binding” value in [7] is listed as “revealed inhibitory effects on PD-1/PD-L1 binding but did not show dose-dependent activities”. In [3], this compound registered an EC50 of 15.4 µM.

The values are drawn from paper PMC7247329, “Kaempferol and Its Glycoside, Kaempferol 7-O-rhamnoside, Inhibit PD-1/PD-L1 Interaction In Vitro” (International Journal of Molecular Sciences, 2020).
